Results: US20240145031A1, “Methods and devices for drug repositioning and drug repurposing as nuclear receptor modulators” (Precision Medicine Lab, priority 2022, published 2024)
Like-named read-outs stand apart in the source and are kept apart here.

Legend:
[1] = target: T1, glucocorticoid receptor recombinant human protein, ligand binding domain (LBD) (Homo sapiens, UniProt P04150); test: nuclear receptor cofactor recruitment peptide array (70 coregulator peptides), ligand induced cofactor peptide interaction profiling; assay type: biochemical; details: for weighted log fold change: example 3, weight factors of table 7
T1 construct: purchased Thermo Fisher Scientific A15668
T1 sequence (P04150 524-758 limits assumed): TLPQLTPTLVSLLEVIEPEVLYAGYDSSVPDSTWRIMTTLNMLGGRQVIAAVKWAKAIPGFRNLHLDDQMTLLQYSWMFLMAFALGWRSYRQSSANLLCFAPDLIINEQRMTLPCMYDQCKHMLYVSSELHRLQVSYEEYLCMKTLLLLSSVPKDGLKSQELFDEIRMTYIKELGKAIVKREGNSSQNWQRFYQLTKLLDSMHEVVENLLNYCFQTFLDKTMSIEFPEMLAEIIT
Procedure: Interactions between the glucocorticoid receptor ligand binding domain and the selected drugs for repurposing and coregulator peptides were determined using the method as described by Zalachoras et al 2013^xxvii Each peptide array consisting of 70 coregulator peptides as described in table 1 were incubated with a reaction mixture of 1 nM purified glucocorticoid receptor recombinant human protein, ligand binding domain (LBD), (Thermo Fisher Scientific, cat #A15668), ALEXA488-conjugated anti-GST antibody and buffer F (PV4689, A-11131, and PV4547; Invitrogen). […] For ligand induced cofactor peptide interaction profiling the set of repurposing drugs were tested at a concentration of 0.05 mM compared to solvent (2% DMSO in water). Incubation was performed at 20° C. on the cofactor peptide array. Glucocorticoid receptor binding to each peptide on the array, reflected by fluorescent signal, was quantified by image analysis using R-based software (Precision Medicine Lab). The 70 coregulator peptides used represent a range of coregulator nuclear receptor-boxes known to interact with the glucocorticoid receptor and other nuclear receptors. The binding profiles were generated for glucocorticoid receptor-LBD treated with the repurposing drugs vs cortisol.
The R2 is calculated using the data for each of the 70 cofactor peptides using the same weight.
In this example a weight factor was applied on the log fold change data of example 1 to determine the similarities between the tested repositioning drugs versus cortisol using the coefficient of determination, R2, between the weighted log fold change data of the tested repurposing drug to the positive control, cortisol. […] In this example 14 cofactor peptides were used (table 3).

[2] = target: T1, glucocorticoid receptor recombinant human protein, ligand binding domain (LBD); test: as above; assay type: biochemical; details: example 3, weight factors of table 7

With `C[C@]12CCC(=O)C=C1CC[C@@H]1[C@@H]2[C@@H](O)C[C@@]2(C)[C@H]1CC[C@]2(O)C(=O)CO` [PC, Cortisol] the “binding to coregulator peptide no 22 NCOA1_1421_1444 compared to the negative control (NC), DMSO” value ([1]; FIG. 2, 0.05 mM) was “increased binding”, the “weighted log fold change” value ([1]; peptide 24 NCOA1_738_759) was 0.168 and the “weighted log fold change” value ([1]; peptide 26 NCOA2_679_700) was 0.056. For the same compound, the “weighted log fold change” value ([1]; peptide 27 NCOA2_734_755) was 0.366, the “weighted log fold change” value ([1]; peptide 52 PELP1_21_42) was 0.028 and the “weighted log fold change” value ([1]; peptide 58 PRGC1_134_154) was 0.835. The “weighted log fold change” value ([1]; peptide 59 PRGC2_146_166) was 0.113, the “weighted log fold change” value ([1]; peptide 63 TIF1A_748_769) was 0.058 and the “weighted log fold change” value ([1]; peptide 68 UBE3A_650_671) was 0.357. The “weighted log fold change” value ([1]; peptide 70 ZNHI3_90_111) was 0.025, the log fold change ([1]; example 4, weight factor of 1, peptide 11 IKBB_278_299) was 0.611 and the log fold change ([1]; example 4, weight factor of 1, peptide 27 NCOA2_734_755) was 1.465. It also gave a log fold change ([1]; example 4, weight factor of 1, peptide 59 PRGC2_146_166) of 0.902, a log fold change ([1]; example 4, weight factor of 1, peptide 68 UBE3A_650_671) of 1.430 and a log fold change ([1]; peptide 1 ANDR_11_32, 0.05 mM vs solvent (2% DMSO)) of 0.549. It also gave a log fold change ([1]; peptide 2 CBP_2056_2077, 0.05 mM vs solvent (2% DMSO)) of 0.473, a log fold change ([1]; peptide 3 CENPR_159_177, 0.05 mM vs solvent (2% DMSO)) of 0.669 and a log fold change ([1]; peptide 4 CHD9_1024_1045, 0.05 mM vs solvent (2% DMSO)) of 0.375. The log fold change ([1]; peptide 5 CNOT1_141_162, 0.05 mM vs solvent (2% DMSO)) was 0.446, the log fold change ([1]; peptide 6 CNOT1_558_579, 0.05 mM vs solvent (2% DMSO)) was 0.386 and the log fold change ([1]; peptide 7 DHX30_49_70, 0.05 mM vs solvent (2% DMSO)) was 0.446. The log fold change ([1]; peptide 8 EP300_2040_2061, 0.05 mM vs solvent (2% DMSO)) was 0.383, the log fold change ([1]; peptide 9 EP300_70_91, 0.05 mM vs solvent (2% DMSO)) was 0.813 and the log fold change ([1]; peptide 11 IKBB_278_299, 0.05 mM vs solvent (2% DMSO)) was 0.611. For the same compound, the log fold change ([1]; peptide 13 KMT2D_2674_2695, 0.05 mM vs solvent (2% DMSO)) was 0.589, the log fold change ([1]; peptide 14 LCOR_41_62, 0.05 mM vs solvent (2% DMSO)) was 1.238 and the log fold change ([1]; peptide 15 MAPE_250_271, 0.05 mM vs solvent (2% DMSO)) was 0.090. For the same compound, the log fold change ([1]; peptide 16 MAPE_301_322, 0.05 mM vs solvent (2% DMSO)) was −0.294, the log fold change ([1]; peptide 17 MED1_593_614, 0.05 mM vs solvent (2% DMSO)) was 0.949 and the log fold change ([1]; peptide 18 MEN1_256_277, 0.05 mM vs solvent (2% DMSO)) was 0.192. For the same compound, the log fold change ([1]; peptide 19 MGMT_87_108, 0.05 mM vs solvent (2% DMSO)) was 0.250, the log fold change ([1]; peptide 20 MLL2_4176_4197, 0.05 mM vs solvent (2% DMSO)) was 0.650 and the log fold change ([1]; peptide 21 MLL2_4703_4724, 0.05 mM vs solvent (2% DMSO)) was 0.531. For the same compound, the log fold change ([1]; peptide 22 NCOA1_1421_1441, 0.05 mM vs solvent (2% DMSO)) was 1.715, the log fold change ([1]; peptide 23 NCOA1_679_700, 0.05 mM vs solvent (2% DMSO)) was 1.097 and the log fold change ([1]; peptide 24 NCOA1_738_759, 0.05 mM vs solvent (2% DMSO)) was 1.340. The log fold change ([1]; peptide 25 NCOA2_630_651, 0.05 mM vs solvent (2% DMSO)) was 1.253, the log fold change ([1]; peptide 26 NCOA2_679_700, 0.05 mM vs solvent (2% DMSO)) was 1.777 and the log fold change ([1]; peptide 27 NCOA2_734_755, 0.05 mM vs solvent (2% DMSO)) was 1.465. The log fold change ([1]; peptide 28 NCOA2_867_888, 0.05 mM vs solvent (2% DMSO)) was 0.263, the log fold change ([1]; peptide 29 NCOA3_610_631, 0.05 mM vs solvent (2% DMSO)) was 1.176 and the log fold change ([1]; peptide 30 NCOA3_674_695, 0.05 mM vs solvent (2% DMSO)) was 0.197. It also gave a log fold change ([1]; peptide 31 NCOA3_726_747, 0.05 mM vs solvent (2% DMSO)) of 1.029, a log fold change ([1]; peptide 32 NCOA4_316_337, 0.05 mM vs solvent (2% DMSO)) of 0.839 and a log fold change ([1]; peptide 34 NCOR1_1925_1946, 0.05 mM vs solvent (2% DMSO)) of 0.398. The log fold change ([1]; peptide 35 NCOR1_2040_2061, 0.05 mM vs solvent (2% DMSO)) was 0.391, the log fold change ([1]; peptide 36 NELFB_329_350, 0.05 mM vs solvent (2% DMSO)) was 0.195 and the log fold change ([1]; peptide 38 NR0B1_2_23, 0.05 mM vs solvent (2% DMSO)) was 0.415. For the same compound, the log fold change ([1]; peptide 39 NR0B2_107_128, 0.05 mM vs solvent (2% DMSO)) was 1.538, the log fold change ([1]; peptide 41 NRIP1_174_195, 0.05 mM vs solvent (2% DMSO)) was 0.213 and the log fold change ([1]; peptide 42 NRIP1_369_390, 0.05 mM vs solvent (2% DMSO)) was 1.027. It also gave a log fold change ([1]; peptide 43 NRIP1_489_510, 0.05 mM vs solvent (2% DMSO)) of 0.954, a log fold change ([1]; peptide 44 NRIP1_701_722, 0.05 mM vs solvent (2% DMSO)) of 0.609 and a log fold change ([1]; peptide 45 NRIP1_810_831, 0.05 mM vs solvent (2% DMSO)) of 0.909. For the same compound, the log fold change ([1]; peptide 46 NRIP1_925_946, 0.05 mM vs solvent (2% DMSO)) was 0.970, the log fold change ([1]; peptide 47 NSD1_895_916, 0.05 mM vs solvent (2% DMSO)) was 0.886 and the log fold change ([1]; peptide 48 PAGR1_103_124, 0.05 mM vs solvent (2% DMSO)) was 1.057. The log fold change ([1]; peptide 49 PAK6_249_270, 0.05 mM vs solvent (2% DMSO)) was 0.362, the log fold change ([1]; peptide 50 PCAF_179_200, 0.05 mM vs solvent (2% DMSO)) was 0.771 and the log fold change ([1]; peptide 51 PELP1_169_190, 0.05 mM vs solvent (2% DMSO)) was 0.496. It also gave a log fold change ([1]; peptide 52 PELP1_21_42, 0.05 mM vs solvent (2% DMSO)) of 0.888, a log fold change ([1]; peptide 53 PELP1_447_468, 0.05 mM vs solvent (2% DMSO)) of 0.771 and a log fold change ([1]; peptide 54 PIAS2_7_28, 0.05 mM vs solvent (2% DMSO)) of 0.383. For the same compound, the log fold change ([1]; peptide 55 PNRC1_306_327, 0.05 mM vs solvent (2% DMSO)) was 0.568, the log fold change ([1]; peptide 56 PPRC1_152_173, 0.05 mM vs solvent (2% DMSO)) was 0.380 and the log fold change ([1]; peptide 57 PR285_1106_1127, 0.05 mM vs solvent (2% DMSO)) was 1.167. It also gave a log fold change ([1]; peptide 58 PRGC1_134_154, 0.05 mM vs solvent (2% DMSO)) of 1.669, a log fold change ([1]; peptide 59 PRGC2_146_166, 0.05 mM vs solvent (2% DMSO)) of 0.902 and a log fold change ([1]; peptide 60 PRGC2_338_358, 0.05 mM vs solvent (2% DMSO)) of 1.230. The log fold change ([1]; peptide 61 PROX1_58_79, 0.05 mM vs solvent (2% DMSO)) was 0.547, the log fold change ([1]; peptide 62 RAD9A_349_370, 0.05 mM vs solvent (2% DMSO)) was 0.503 and the log fold change ([1]; peptide 63 TIF1A_748_769, 0.05 mM vs solvent (2% DMSO)) was 0.930. The log fold change ([1]; peptide 64 TIP60_477_498, 0.05 mM vs solvent (2% DMSO)) was 0.672, the log fold change ([1]; peptide 65 TREF1_169_190, 0.05 mM vs solvent (2% DMSO)) was 0.886 and the log fold change ([1]; peptide 66 TRRAP_972_993, 0.05 mM vs solvent (2% DMSO)) was 1.371. It also gave a log fold change ([1]; peptide 67 TRXR1_133_154, 0.05 mM vs solvent (2% DMSO)) of 0.623, a log fold change ([1]; peptide 68 UBE3A_650_671, 0.05 mM vs solvent (2% DMSO)) of 1.430 and a log fold change ([1]; peptide 69 WIPI1_120_141, 0.05 mM vs solvent (2% DMSO)) of 1.049. The log fold change ([1]; peptide 70 ZNHI3_90_111, 0.05 mM vs solvent (2% DMSO)) was 0.814, the “weighted log fold change” value ([2]; peptide 22 NCOA1_1421_1441) was 1.715 and the “weighted log fold change” value ([2]; peptide 31 NCOA3_726_747) was 0.515. The “weighted log fold change” value ([2]; peptide 39 NR0B2_107_128) was 0.769, the “weighted log fold change” value ([2]; peptide 42 NRIP1_369_390) was 0.128 and the “weighted log fold change” value ([2]; peptide 45 NRIP1_810_831) was 0.057.
In the case of Dexamethasone [Drug 3], the “binding to coregulator peptide no 22 NCOA1_1421_1444 compared to the negative control (NC), DMSO” value [1] is reported as “increased binding”.
